Experimental data taken from ChEMBL document CHEMBL1629546 (Antimicrob Agents Chemother, 2008).
Values after ≈ are worked out from the molar mass of the structure shown. Active and inactive are the calls of the source. The rule behind the calls is not given here.

Assays:
Bacillus anthracis [1] = details: in vivo, 24 h
Bacillus anthracis [2] = experiment: Antimicrobial activity against Bacillus anthracis infected in in vitro hollow fiber PK/PD model assessed as prevention of bacterial regrowth at 700 mg administered once every 24 hrs; type: functional, organism-based
Bacillus anthracis [3] = experiment: Antimicrobial activity against Bacillus anthracis infected in in vitro hollow fiber PK/PD model assessed as bacterial killing at 800 mg administered once every 24 hrs; type: functional, organism-based
Bacillus anthracis [4] = details: in vivo
Bacillus anthracis [5] = experiment: Antimicrobial activity against Bacillus anthracis infected in in vitro hollow fiber PK/PD model assessed as cell killing at 200 mg administered once every 24 hrs; type: functional, organism-based
Bacillus anthracis [6] = experiment: Antimicrobial activity against Bacillus anthracis infected in in vitro hollow fiber PK/PD model assessed as bacterial regrowth at 200 mg administered once every 24 hrs; type: functional, organism-based
Bacillus anthracis [7] = experiment: Antimicrobial activity against Bacillus anthracis infected in in vitro hollow fiber PK/PD model assessed as bacterial regrowth at 400 mg administered once every 24 hrs; type: functional, organism-based
Bacillus anthracis [8] = experiment: Antimicrobial activity against Bacillus anthracis infected in in vitro hollow fiber PK/PD model assessed as cell killing at 300 mg administered once every 24 hrs; type: functional, organism-based
Bacillus anthracis [9] = experiment: Antimicrobial activity against Bacillus anthracis infected in in vitro hollow fiber PK/PD model assessed as cell killing at 800 mg administered as 2 divided doses every 12 hrs; type: functional, organism-based
Bacillus anthracis [10] = details: in vivo, 24 h; remark: listed apart in the source
Bacillus anthracis [11] = experiment: Antimicrobial activity against Bacillus anthracis infected in in vitro hollow fiber PK/PD model assessed as cell killing at 400 mg administered once every 24 hrs; type: functional, organism-based
Bacillus anthracis [12] = details: in vivo, 24 h; remark: listed apart in the source
Bacillus anthracis [13] = experiment: Antimicrobial activity against Bacillus anthracis infected in in vitro hollow fiber PK/PD model assessed as prevention of bacterial regrowth at 800 mg administered once every 24 hrs; type: functional, organism-based
Bacillus anthracis [14] = details: in vivo, 24 h; remark: listed apart in the source
Bacillus anthracis [15] = experiment: Antimicrobial activity against wild-type Bacillus anthracis; type: functional
Bacillus anthracis [16] = details: in vivo; remark: listed apart in the source
Bacillus anthracis [17] = details: in vivo; remark: listed apart in the source
Bacillus anthracis [18] = details: in vivo, 24 h; remark: listed apart in the source
Bacillus anthracis [19] = details: in vivo; remark: listed apart in the source
Bacillus anthracis [20] = experiment: Antimicrobial activity against Bacillus anthracis infected in in vitro hollow fiber PK/PD model assessed as bacterial regrowth at 600 mg administered once every 24 hrs; type: functional, organism-based
Bacillus anthracis [21] = experiment: Antimicrobial activity against Bacillus anthracis infected in in vitro hollow fiber PK/PD model assessed as reduction in bacterial burden at 700 mg administered once every 24 hrs; type: functional, organism-based
Bacillus anthracis [22] = experiment: Antimicrobial activity against Bacillus anthracis infected in in vitro hollow fiber PK/PD model assessed as cell killing at 800 mg administered as 4 divided doses every 6 hrs; type: functional, organism-based
Bacillus anthracis [23] = details: in vivo; remark: listed apart in the source
Bacillus anthracis [24] = experiment: Antimicrobial activity against Bacillus anthracis infected in in vitro hollow fiber PK/PD model assessed as bacterial killing at 500 mg administered once every 24 hrs for 15 days; type: functional, organism-based
Bacillus anthracis [25] = details: in vivo, 24 h; remark: listed apart in the source
Bacillus anthracis [26] = experiment: Antimicrobial activity against Bacillus anthracis infected in in vitro hollow fiber PK/PD model assessed as bacterial killing at 600 mg administered once every 24 hrs for 15 days; type: functional, organism-based
Bacillus anthracis [27] = details: in vivo; remark: listed apart in the source
Bacillus anthracis [28] = experiment: Antimicrobial activity against Bacillus anthracis infected in in vitro hollow fiber PK/PD model assessed as cell killing at 800 mg administered once every 24 hrs; type: functional, organism-based
Bacillus anthracis [29] = experiment: Antimicrobial activity against Bacillus anthracis infected in in vitro hollow fiber PK/PD model assessed as bacterial regrowth at 300 mg administered once every 24 hrs; type: functional, organism-based
Bacillus anthracis [30] = details: in vivo, 24 h; remark: listed apart in the source
Bacillus anthracis [31] = details: in vivo, 24 h; remark: listed apart in the source
Bacillus anthracis [32] = details: in vivo, 24 h; remark: listed apart in the source
Bacillus anthracis [33] = details: in vivo, 24 h; remark: listed apart in the source
Bacillus anthracis [34] = details: in vivo, 24 h; remark: listed apart in the source
Bacillus anthracis [35] = details: in vivo; remark: listed apart in the source
Bacillus anthracis [36] = details: in vivo; remark: listed apart in the source
Bacillus anthracis [37] = details: in vivo; remark: listed apart in the source
Bacillus anthracis [38] = experiment: Antimicrobial activity against Bacillus anthracis infected in in vitro hollow fiber PK/PD model assessed as bacterial regrowth at 100 mg administered once every 24 hrs; type: functional, organism-based
Bacillus anthracis [39] = details: in vivo, 24 h; remark: listed apart in the source
Bacillus anthracis [40] = details: in vivo, 24 h; remark: listed apart in the source
Bacillus anthracis [41] = details: in vivo; remark: listed apart in the source
Bacillus anthracis [42] = experiment: Antimicrobial activity against Bacillus anthracis infected in in vitro hollow fiber PK/PD model assessed as bacterial regrowth at 500 mg administered once every 24 hrs; type: functional, organism-based

For `CC(=O)NC[C@H]1CN(c2ccc(N3CCOCC3)c(F)c2)C(=O)O1` [LINEZOLID], the fAUC (Bacillus anthracis [1]) was 78508 ng·h/mL, the Activity (Bacillus anthracis [2]) was “Active” and the Activity (Bacillus anthracis [3]) was “Active”. The fAUC (Bacillus anthracis [4]) was 71300 ng·h/mL, the Activity (Bacillus anthracis [5]) was “Active” and the Activity (Bacillus anthracis [6]) was “Active”. The Activity (Bacillus anthracis [7]) was “Active”, the Activity (Bacillus anthracis [8]) was “Active” and the Activity (Bacillus anthracis [9]) was “Active”. The fAUC (Bacillus anthracis [10]) was 90106 ng·h/mL, the Activity (Bacillus anthracis [11]) was “Active” and the fAUC (Bacillus anthracis [12]) was 71422 ng·h/mL. For the same compound, the Activity (Bacillus anthracis [13]) was “Active”, the fAUC (Bacillus anthracis [14]) was 22498 ng·h/mL and the MIC (Bacillus anthracis [15]) was 3 µg/mL (≈ 8.89 µM). The fAUC (Bacillus anthracis [16]) was 71540 ng·h/mL, the fAUC (Bacillus anthracis [17]) was 91284 ng·h/mL and the fAUC (Bacillus anthracis [18]) was 56283 ng·h/mL. The fAUC (Bacillus anthracis [19]) was 36244 ng·h/mL, the Activity (Bacillus anthracis [20]) was “Active” and the Activity (Bacillus anthracis [21]) was “Active”. For the same compound, the Activity (Bacillus anthracis [22]) was “Active”, the fAUC (Bacillus anthracis [23]) was 115702 ng·h/mL and the Activity (Bacillus anthracis [24]) was “Active”. The fAUC (Bacillus anthracis [25]) was 11249 ng·h/mL, the Activity (Bacillus anthracis [26]) was “Active” and the fAUC (Bacillus anthracis [27]) was 74371 ng·h/mL. For the same compound, the Activity (Bacillus anthracis [28]) was “Active”, the Activity (Bacillus anthracis [29]) was “Active” and the fAUC (Bacillus anthracis [30]) was 45553 ng·h/mL. The fAUC (Bacillus anthracis [31]) was 56283 ng·h/mL, the fAUC (Bacillus anthracis [32]) was 91106 ng·h/mL and the fAUC (Bacillus anthracis [33]) was 71422 ng·h/mL. The fAUC (Bacillus anthracis [34]) was 78508 ng·h/mL, the fAUC (Bacillus anthracis [35]) was 91216 ng·h/mL and the fAUC (Bacillus anthracis [36]) was 90081 ng·h/mL. The fAUC (Bacillus anthracis [37]) was 56258 ng·h/mL, the Activity (Bacillus anthracis [38]) was “Active” and the fAUC (Bacillus anthracis [39]) was 33746 ng·h/mL. The fAUC (Bacillus anthracis [40]) was 91106 ng·h/mL, the fAUC (Bacillus anthracis [41]) was 56245 ng·h/mL and the Activity (Bacillus anthracis [42]) was “Active”.

Work on `O=C(O)c1cn(C2CC2)c2cc(N3CCNCC3)c(F)cc2c1=O` [CIPROFLOXACIN] yielded a fAUC (Bacillus anthracis [36]) of 22356 ng·h/mL.
